Test [1] concerns barley scald fungi (Rhynchosporium secalis). The test can be described thus: Titer plate growth test of barley scald fungi in potato broth medium (absorbance at 600 nm). Particulars: 4.7 ppm, cultured at 18° C. for 7 days. It counts as cell-based. The protocol: Each 1 μL of a solution containing the compound A at a predetermined concentration in dimethylsulfoxide was dispensed into a titer plate (96 wells), and then each 150 μL of potato broth medium containing suspension of spore of wheat leaf stripe fungi (Septoria tritici) was dispensed so that the concentration of the compound A was finally 4.7 ppm. The plate was cultured at 18° C. for 4 days, thereby allowing the wheat leaf stripe fungi to undergo proliferation, and the absorbance at 600 nm of each well of the titer plate was then measured to determine a degree of growth of the wheat leaf stripe fungi. The efficacy was calculated from the determined degree of growth by the below-mentioned “Equation 1”. Efficacy (%)=100×(X−Y)/X “Equation 1” wherein • X: Degree of fungal growth in non-treated area • Y: Degree of fungal growth in treated area The “Non-treated area” represents an area where a similar treatment procedure to that of the treated area except for not using the compound A is done. […] The plate was cultured at 18° C. for 7 days, thereby allowing the barley scald fungi to undergo proliferation, and the absorbance at 600 nm of each well of the titer plate was then measured to determine a degree of growth of the barley scald fungi. The efficacy was calculated from the determined degree of growth by the below-mentioned “Equation 1”. […]

For test [2], the system named is wheat leaf stripe fungi (Septoria tritici). The test can be described thus: Titer plate growth test of wheat leaf stripe fungi in potato broth medium (absorbance at 600 nm). It counts as cell-based. The following applies: cultured at 18° C. for 4 days. The protocol:
Each 1 μL of a solution containing the compound A at a predetermined concentration in dimethylsulfoxide was dispensed into a titer plate (96 wells), and then each 150 μL of potato broth medium containing suspension of spore of wheat leaf stripe fungi (Septoria tritici) was dispensed so that the concentration of the compound A was finally 4.7 ppm. The plate was cultured at 18° C. for 4 days, thereby allowing the wheat leaf stripe fungi to undergo proliferation, and the absorbance at 600 nm of each well of the titer plate was then measured to determine a degree of growth of the wheat leaf stripe fungi. The efficacy was calculated from the determined degree of growth by the below-mentioned “Equation 1”. Efficacy (%)=100×(X−Y)/X “Equation 1” wherein • X: Degree of fungal growth in non-treated area • Y: Degree of fungal growth in treated area The “Non-treated area” represents an area where a similar treatment procedure to that of the treated area except for not using the compound A is done. Each 1 μL of a solution containing the compound A at a predetermined concentration in dimethylsulfoxide was dispensed into a titer plate (96 wells), and then each 150 μL of potato broth medium containing suspension of spore of wheat leaf stripe fungi was dispensed so that the concentration of the compound A was finally 1.2 ppm. The plate was cultured at 18° C. for 4 days, thereby allowing the wheat leaf stripe fungi to undergo proliferation, and the absorbance at 600 nm of each well of the titer plate was then measured to determine a degree of growth of the wheat leaf stripe fungi. The efficacy was calculated from the determined degree of growth by the below-mentioned “Equation 1”. As a result, the efficacy was 53%. The test was carried out according to Test Example 1 using the compound B instead of the compound A. As a result, the efficacy was 45%. The test was carried out according to Test Example 2 using the compound B instead of the compound A. As a result, the efficacy was 12%.

Setting [3] is: 1.2 ppm, wheat leaf stripe fungi.

The record followed here is patent publication US11820755B2, “Uracil compound and use thereof” (Sumitomo Chemical Company, Limited, priority 2018, dated 2023).

In the case of `CCOc1ncccc1Oc1cc(-n2c(=O)cc(C(F)(F)F)n(C)c2=O)c(F)cc1Cl` [Compound A], the “Efficacy (%)” value in test [1] is 94%; in test [2] (setting [3]), 53%; in test [2] (4.7 ppm, Septoria tritici), 73%.
As for `COc1ncccc1Oc1cc(-n2c(=O)cc(C(F)(F)F)n(C)c2=O)c(F)cc1Cl` [Compound B], the “Efficacy (%)” value amounted to 41% in test [1]; 12% in test [2] (setting [3]); 45% in test [2] (4.7 ppm, Septoria tritici).
